Source: patent US11246856B2, “Methods of treating resistant cancers” (University of Maryland, Baltimore, priority 2017, dated 2022)

Experiments:
Assay type in all cases: cell-based
[1] = tested on: YAP1, TAZ and TEAD in A375 and A375-PLX-R cells; test: YAP1/TAZ/TEAD mRNA and protein level after verteporfin, monolayer cells; settings: proteasome inhibitor with verteporfin, FIG. 4I
Protocol: Equivalent amounts of protein were electrophoresed on denaturing and reducing 10% polyacrylamide gels and transferred to nitrocellulose membrane. The membrane was blocked by 5% nonfat dry milk for one hour and incubated with 1:1000 primary antibody in 5% nonfat dry milk. Blots were rinsed in TBS-T and then incubated with secondary antibodies (1:5000) for 2 h. Secondary antibody binding was visualized using ECL Prime (Amersham) chemiluminescence detection technology. For immunostaining, cells were harvested, suspended in growth medium, and plated in LAB-TEK II Chamber Slide System. After 24 h, the cells were fixed with 4% paraformaldehyde at room temperature for 15 min, washed three with phosphate-buffered saline, in 0.1% Triton X-100 for 15 min, washed with phosphate-buffered saline, and blocked for 1 h with phosphate-buffered saline containing 7.5% fetal calf serum. Primary antibodies were added, and the slides incubated overnight at 4° C. Cells were then washed three times with phosphate-buffered saline and incubated 1 h with the appropriate Alexa Flour fluorescence probe-conjugated secondary antibody. After additional washing, the cells were stained with DAPI for 10 min prior to imaging.
Total RNA was isolated using Illustra RNAspin mini kit (GE Healthcare), and 1 μg of RNA was used for cDNA synthesis. Gene expression was measured by real time PCR using Light Cycler 480 SYBR Green I Master Mix (04-707 516 001) from Roche Diagnostics (Indianapolis, Ind.). The signals were normalized using cyclophilin A control primers. The gene specific primers used for detection of mRNA levels were as follows: cyclophilin A (forward, 5′-[…] (SEQ ID NO: 3); reverse, 5′-[…] (SEQ ID NO: 4)), TAZ (forward, 5′-GTATCCCAGCCAATC TCG (SEQ ID NO: 5); reverse, 5′-TTCTGAGTGGGGTGGTTC (SEQ ID NO: 6)) and YAP1 (forward, 5′-[…] (SEQ ID NO: 7); reverse, 5′-[…], (SEQ ID NO: 8)) (11).
To understand the mechanism of verteporfin action, monolayer A375 and A375-PLX-R cells were treated with […] verteporfin for 24 h and the impact on YAP1/TAZ mRNA and protein level was monitored. […] The proteasome is known to regulate YAP1/TAZ level (29,30) and so whether the proteasome was responsible for the observed reductions was examined.

A375-PLX-R cells = test: Cell proliferation, PLX4032-resistant A375-PLX-R cells; settings: ERK1/2 inhibitor treatment, FIG. 5H
Protocol: (§1) A375, SK-MEL-5 and SK-MEL-28 cell lines were maintained in DMEM growth medium containing 10% FCS, 2 mM L-glutamine and 1 mM sodium pyruvate. The WM3248 cells were maintained in MCDB153:L15 (4:1) growth medium containing 2% FCS, […] insulin and 1.68 mM CaCl2. To create PLX4032-resistant cells, A375, SK-MEL-5, SK-MEL-28 and WM3248 cells were treated with […] in monolayer culture in growth medium for several weeks. The surviving cells were then expanded and cultured in increasing doses of PLX4032 up to […]. The resulting PLX4032-resistant cells, designated PLX4032-resistant (e.g., A375-PLX-R) were routinely maintained in the presence of […] PLX4032.

[2] = tested on: SKMELS-PLX-R, SKMEL28-PLX-R and WM3248-PLX-R cells; test: Cell proliferation, other PLX4032-resistant lines; settings: ERK1/2 inhibitor treatment, FIG. 5I
Protocol: as §1
This predicts that the BRAF inhibitors-resistant cells should remain sensitive to ERK1/2 inhibitors. To assess the role of ERK1/2 PLX4032 resistant cells were treated with SCH772984, a specific inhibitor of ERK1/2 (31), and the impact on cell proliferation was monitored.

CC(=O)N[C@@H](CSC(=O)[C@]1([C@@H](O)C(C)C)NC(=O)[C@H](C)[C@@H]1O)C(=O)O [lactacystin]
reversal of verteporfin-dependent reduction in YAP1, TAZ and TEAD level [1]: not reversed

O=C(Nc1ccc2[nH]nc(-c3ccncc3)c2c1)[C@@H]1CCN(CC(=O)N2CCN(c3ccc(-c4ncccn4)cc3)CC2)C1 [SCH772984]
A375-PLX-R cells number (A375-PLX-R cells): time-dependent reduction
proliferation of PLX4032-resistant cells [2]: reduced
